What all share (type): functional
The subject of assay [1] is Staphylococcus aureus. Put plainly: Antimicrobial activity against Staphylococcus aureus ATCC 29213 assessed as inhibition of microbial growth incubated for 24 hrs by broth-microdilution assay. Particulars: for MIC: Staphylococcus aureus, ATCC 29213, read-out: MIC100. (In general: In broth dilution the organism is exposed to a series of concentrations in liquid medium.)

Assay [2] deals with Klebsiella pneumoniae. Nature of the assay: Antimicrobial activity against Klebsiella pneumoniae ATCC 13883 assessed as inhibition of microbial growth incubated for 24 hrs by broth-microdilution assay. Particulars: read-out: MIC100.
Assay [3] has as its system Staphylococcus epidermidis. Put plainly: Antimicrobial activity against Staphylococcus epidermidis ATCC 12228 assessed as inhibition of microbial growth incubated for 24 hrs by broth-microdilution assay. Particulars: for MIC: Staphylococcus epidermidis.
For assay [4], the system named is Pseudomonas aeruginosa. Put plainly: Antimicrobial activity against Pseudomonas aeruginosa ATCC 27853 assessed as inhibition of microbial growth incubated for 24 hrs by broth-microdilution assay. Particulars: Pseudomonas aeruginosa, ATCC 27853, read-out: MIC100.
Assay [5] concerns Pseudomonas aeruginosa. Nature of the assay: Antimicrobial activity against Pseudomonas aeruginosa PAO1 assessed as inhibition of microbial growth incubated for 24 hrs by broth-microdilution assay. The conditions noted are these: Pseudomonas aeruginosa, PAO1, read-out: MIC100.
Assay [6] deals with Candida albicans. Put plainly: Antifungal activity against Candida albicans ATCC 10231 assessed as reduction in fungal growth incubated for 48 hrs by CLSI based analysis. Particulars: read-out: MIC100.
The test system of assay [7] is Klebsiella pneumoniae. Nature of the assay: Antimicrobial activity against Klebsiella pneumoniae ATCC BAA1705 assessed as inhibition of microbial growth incubated for 24 hrs by broth-microdilution assay. The conditions noted are these: for MIC: read-out: MIC100.
Assay [8] relates to Candida albicans. Put plainly: Antifungal activity against Candida albicans ATCC 90028 assessed as reduction in fungal growth incubated for 48 hrs by CLSI based analysis.
In assay [9] the test system is Staphylococcus epidermidis. Put plainly: Antimicrobial activity against Staphylococcus epidermidis ATCC 35984 assessed as inhibition of microbial growth incubated for 24 hrs by broth-microdilution assay. The conditions noted are these: for MIC: Staphylococcus epidermidis.
Assay [10] concerns Staphylococcus aureus. Put plainly: Antimicrobial activity against Staphylococcus aureus ATCC 43300 assessed as inhibition of microbial growth incubated for 24 hrs by broth-microdilution assay. Particulars: for MIC: Staphylococcus aureus, ATCC 43300, read-out: MIC100.
Assay [11] relates to Staphylococcus aureus. Put plainly: Antimicrobial activity against methicillin resistant Staphylococcus aureus 43300 assessed as inhibition of microbial growth incubated for 24 hrs by broth-microdilution assay.
In assay [12] the test system is Staphylococcus aureus. Nature of the assay: Antimicrobial activity against Staphylococcus aureus 29213 assessed as inhibition of microbial growth incubated for 24 hrs by broth-microdilution assay.

≈ marks a conversion by molar mass, not a printed value.

Turning to `CC1(C)CCC[C@]2(C)[C@H]3CC[C@@](C)(CC(=O)O)O[C@]3(C)CC[C@@H]12`, the MIC in the assay with Staphylococcus aureus [1] is over 128 µg/mL; with Klebsiella pneumoniae [2] it was over 128 µg/mL; in [3] (ATCC 12228, read-out: MIC100) it was 128 µg/mL; with Pseudomonas aeruginosa [4] it was over 128 µg/mL; in the assay on Pseudomonas aeruginosa [5], over 128 µg/mL; in the assay with Candida albicans [6], over 128 µg/mL. Also, the MIC in the assay on Klebsiella pneumoniae [7] is over 128 µg/mL; with Candida albicans [8] (read-out: MIC100), over 128 µg/mL; in [9] (ATCC 35984, read-out: MIC100), 128 µg/mL; in the assay with Staphylococcus aureus [10] it was over 128 µg/mL.

Regarding `CC1=C(CC/C=C(/C)C(=O)NC(=N)N)[C@@]2(C)CCCC(C)(C)[C@@H]2CC1`, the MIC in assay [3] (ATCC 12228, read-out: MIC) came to 4 µg/mL; with Staphylococcus aureus [11] (read-out: MIC) it was 4 µg/mL; with Staphylococcus aureus [12], 4 µg/mL; in the assay on Candida albicans [8] (read-out: MIC) it was 8 µg/mL (≈ 23.2 µM); in [9] (ATCC 35984, read-out: MIC), 4 µg/mL.

Turning to GENTAMICIN, the MIC100 in the assay on Klebsiella pneumoniae [7] stood at 4 µg/mL.

In the case of `C[C@@H](O)[C@H]1C(=O)N2C(C(=O)O)=C(SCCNC=N)C[C@H]12` [IMIPENEM ANHYDROUS], the MIC in the assay on Klebsiella pneumoniae [7] was at least 4 µg/mL.

Take `Cc1onc(-c2ccccc2)c1C(=O)N[C@@H]1C(=O)N2[C@@H]1SC(C)(C)[C@@H]2C(=O)O` [OXACILLIN]: the MIC in the assay with Staphylococcus aureus [1] turned out to be 2 µg/mL; in assay [3] (ATCC 12228, read-out: MIC100), 2 µg/mL; in the assay with Staphylococcus aureus [11] (read-out: MIC100) it was 10 µg/mL; in assay [9] (ATCC 35984, read-out: MIC100), 2 µg/mL; in the assay with Staphylococcus aureus [10], 2 µg/mL.

For `CC(=O)O[C@](C)(CCC1[C@](C)(OC(C)=O)CC[C@H]2C(C)(C)CCC[C@]12C)C(=O)N=C(N)N` (some centres undefined), the MIC amounted to 4 µg/mL in [3] (ATCC 12228, read-out: MIC); 4 µg/mL with Staphylococcus aureus [11] (read-out: MIC); 4 µg/mL in the assay with Staphylococcus aureus [12]; 16 µg/mL (≈ 35.4 µM) with Candida albicans [8] (read-out: MIC); 4 µg/mL in [9] (ATCC 35984, read-out: MIC).

`CC1(C)CCC[C@]2(C)[C@H]3CC[C@](C)(CC(=O)O)O[C@]3(C)CC[C@@H]12`: the MIC70 (with Staphylococcus aureus [1]; in assay [3]; in assay [9]; in the assay on Staphylococcus aureus [10]) was 64 µg/mL each time. Also, the MIC with Klebsiella pneumoniae [2], with Pseudomonas aeruginosa [4], in the assay on Pseudomonas aeruginosa [5], in the assay on Candida albicans [6], in the assay on Klebsiella pneumoniae [7] and with Candida albicans [8] (read-out: MIC100) was over 128 µg/mL in each case.

With `NC[C@H]1O[C@H](O[C@H]2[C@H](O)[C@@H](O[C@H]3O[C@H](CO)[C@@H](O)[C@H](N)[C@H]3O)[C@H](N)C[C@@H]2N)[C@H](N)C[C@@H]1O` [TOBRAMYCIN], the MIC in the assay with Klebsiella pneumoniae [2], in the assay with Pseudomonas aeruginosa [4] and with Pseudomonas aeruginosa [5] was 2 µg/mL each time.

For `C[C@@H](c1ncncc1F)[C@](O)(Cn1cncn1)c1ccc(F)cc1F` [VORICONAZOLE], the MIC in the assay on Candida albicans [6] is at least 1 µg/mL; with Candida albicans [8] (read-out: MIC100), at most 0.12 µg/mL.

Consider `C[C@@H]1[C@H](O)[C@@H](C)/C=C/C=C/C=C/C=C/C=C/C=C/C=C/[C@H](O[C@@H]2O[C@H](C)[C@@H](O)[C@H](N)[C@@H]2O)C[C@@H]2O[C@](O)(C[C@@H](O)C[C@@H](O)[C@H](O)CC[C@@H](O)C[C@@H](O)CC(=O)O[C@H]1C)C[C@H](O)[C@H]2C(=O)O` [AMPHOTERICIN B], for which the MIC in the assay on Candida albicans [6] and in the assay with Candida albicans [8] (read-out: MIC100) was 4 µg/mL (≈ 4.33 µM) throughout.

With `CC1=C(CC/C=C(\C)C(=O)N=C(N)N)[C@@]2(C)CCCC(C)(C)[C@@H]2CC1`, the MIC worked out at 4 µg/mL in [3] (ATCC 12228, read-out: MIC); 4 µg/mL with Staphylococcus aureus [11] (read-out: MIC); 4 µg/mL in the assay with Staphylococcus aureus [12]; 8 µg/mL (≈ 23.2 µM) in the assay on Candida albicans [8] (read-out: MIC); 4 µg/mL in [9] (ATCC 35984, read-out: MIC).

(Values after ChEMBL document CHEMBL5537143, “Synthesis and antimicrobial properties of guanidine-functionalized labdane type diterpenoids” (Eur J Med Chem, 2024).)
